Experiments:
[1] = Solubility of crosslinking agent HMTA in methyl benzoate by proton NMR with duroquinone internal standard; format: physicochemical; settings: solvent methyl benzoate
Protocol: For compositional analysis, a Bruker 400 megahertz (MHz) NMR instrument was used. The solubility of crosslinking agent, HMTA, in methyl benzoate was measured by using duroquinone as the internal standard.
The high solubility of HMTA results directly from the plasticized phenol-formaldehyde prepolymer. […] J. P. Patel, et al., J. Polym. Sci. Part B: Polym. Phys., 2015, vol. 53, pp. 1519-1526. […] In this scheme methyl benzoate indirectly increases the interaction between the two reactants, the crosslinking agent HMTA and the phenol-formaldehyde prepolymer.

[2] = solvent furfural; cited from earlier work

solubility of HMTA in methyl benzoate (in words) [1]: virtually insoluble
SMILES: C1N2CN3CN1CN(C2)C3 [HMTA, hexamethylenetetramine]
solubility of HMTA in methyl benzoate ([1]; proton NMR, duroquinone internal standard): no more than 5 milligrams of HMTA per milliliter of methyl benzoate | solubility of HMTA in furfural [2]: less than two

From patent US10815329B2, “Plasticized thermoset resin, and associated cured resin, method of curing, and article comprising cured resin” (The University of Massachusetts, priority 2016, dated 2020)
